The NIST ThermoML archive (doi:10.1021/acs.jced.5b00932)
Numbers after ± are expanded uncertainties.

Assay: wn = mass fraction of the nth substance listed
Settings: 298.15 K, 101 kPa, Liquid, Pycnometric method

## [Ca+2].[Cl-].[Cl-] [calcium chloride] + O
w1 = 0.4647
  mass density: 1456.1 ± 2.3 kg/m3

## [Cl][Al]([Cl])[Cl] [aluminum chloride] + O
w1 = 0.3108
  mass density: 1314.6 ± 2.2 kg/m3

## [Cl][Fe]([Cl])[Cl] [ferric chloride] + O
w1 = 0.5069
  mass density: 1521.5 ± 3.3 kg/m3
